{"source": "paper PMC9937538", "about": "(Journal of Medicinal Chemistry, 2022)", "key": {"[1]": {"test": "Solubility in phosphate-buffered saline (LC-MS/MS)", "format": "physicochemical", "details": "pH 7.4, read-out: soluble concentration", "description": "The solubility of compound 12 was determined in phosphate-buffered saline at a pH of 7.4 through a suitable liquid chromatography and tandem mass spectrometry (LC-MS/MS) method, as described in the Experimental Section."}, "human cloned α1a-AR": {"target": "T1, human cloned α1a-AR (Homo sapiens, UniProt P35348)", "T1 construct": "expressed in transfected cells", "T1 sequence (P35348 1-466)": "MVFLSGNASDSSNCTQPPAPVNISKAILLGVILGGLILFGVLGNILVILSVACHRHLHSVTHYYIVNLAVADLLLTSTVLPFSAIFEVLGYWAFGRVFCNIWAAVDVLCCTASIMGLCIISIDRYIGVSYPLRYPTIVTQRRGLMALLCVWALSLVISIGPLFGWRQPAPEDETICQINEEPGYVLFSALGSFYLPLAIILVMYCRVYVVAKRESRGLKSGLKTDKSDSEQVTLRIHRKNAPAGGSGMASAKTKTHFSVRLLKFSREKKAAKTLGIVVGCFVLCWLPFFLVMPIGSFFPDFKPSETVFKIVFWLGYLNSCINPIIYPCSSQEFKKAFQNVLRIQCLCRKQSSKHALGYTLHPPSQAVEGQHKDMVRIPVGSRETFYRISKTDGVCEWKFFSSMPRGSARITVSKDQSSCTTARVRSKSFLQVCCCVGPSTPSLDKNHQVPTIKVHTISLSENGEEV", "test": "α1a-AR binding assay ([3H]prazosin displacement)", "details": "human cloned α1a-AR expressed in HEK293 cells", "excerpt": "Since WB-4101 is a potent α1 antagonist, this adrenoreceptor subtype was chosen to assess the loss of adrenergic affinity.\nFigure S3. […] Curves […]\nfrom single experiments were fitted using the standard four parameter logistic equation and represent the mean ± S.E.M. of 4 observations, 2 experi-ments. X-axis: Log concentrations of competitive test compounds. Y-axis: normalized [3H]prazosin Bound/Total bound.\nIn the table are reported the affinity constants, expressed as pKi (-log Ki), of compounds 11, 12 and WB-4101 for human cloned α1a-AR expressed in HEK293 cells. The values represent the arithmetic mean ± S.E.M. of 4 observations, 2 experiments.\nND, not determinable; NA, not available.\nNote: data generated from binding assays were analyzed using Prism 5.02 (GraphPad Software Inc., San Diego, CA) and were fitted to a parametric function to derive best estimates of the IC50 and slope factor (nH); IC50 values were then converted to binding constant Ki according to Cheng-Prus- […]\nThe details on the α1a-AR binding assay have been described before2.\n(1 picture or pasted object on this page, not shown here)"}, "Caco-2 cells [2]": {"test_system": "Caco-2 cells", "test": "Uptake by Caco-2 cells (intrinsic fluorescence, normalized with Janus Green)", "format": "in vitro ADME, human", "details": "1.0 μM", "description": "The ability of compound 12 to be uptaken by Caco-2 cells was assessed, exploiting its natural behavior to emit fluorescence at 313 nm after excitation at 250 nm using a fluorescent plate reader. […] Fluorescence signals emitted at 313 nm by the compound localized at the intracellular level as a function of time have been normalized for the total amount of cells stained using Janus Green (OD 595 nm); therefore, the relative fluorescence unit (RFU) 313/595 nm after 15, 30, and 60 min of incubation was calculated. The RFU 313/595 nm of the blank samples, which represents the cellular background, was subtracted from each normalized fluorescence signal. […] In particular, compound 12 is absorbed by Caco-2 cells up to 2874 ± 383.1, 4562 ± 993.2, and 6250 ± 1163RFU after 15, 30, and 60 min, respectively (Figure 7)."}, "hCA IX": {"target": "hCA IX (Homo sapiens, UniProt Q16790)", "test": "CA inhibition, stopped-flow CO2 hydration assay", "details": "read-out: Ki CA IX; stopped-flow technique, mean from three assays"}, "[3]": {"target": "T2, DPP IV activity expressed by nondifferentiated Caco-2 cells (Homo sapiens, UniProt P27487)", "T2 construct": "Caco-2 cells that express high levels of DPP IV on their cellular membranes; endogenous in cells; host or cells: Caco-2 cells (INSERM, Paris)", "T2 sequence (P27487 whole entry)": "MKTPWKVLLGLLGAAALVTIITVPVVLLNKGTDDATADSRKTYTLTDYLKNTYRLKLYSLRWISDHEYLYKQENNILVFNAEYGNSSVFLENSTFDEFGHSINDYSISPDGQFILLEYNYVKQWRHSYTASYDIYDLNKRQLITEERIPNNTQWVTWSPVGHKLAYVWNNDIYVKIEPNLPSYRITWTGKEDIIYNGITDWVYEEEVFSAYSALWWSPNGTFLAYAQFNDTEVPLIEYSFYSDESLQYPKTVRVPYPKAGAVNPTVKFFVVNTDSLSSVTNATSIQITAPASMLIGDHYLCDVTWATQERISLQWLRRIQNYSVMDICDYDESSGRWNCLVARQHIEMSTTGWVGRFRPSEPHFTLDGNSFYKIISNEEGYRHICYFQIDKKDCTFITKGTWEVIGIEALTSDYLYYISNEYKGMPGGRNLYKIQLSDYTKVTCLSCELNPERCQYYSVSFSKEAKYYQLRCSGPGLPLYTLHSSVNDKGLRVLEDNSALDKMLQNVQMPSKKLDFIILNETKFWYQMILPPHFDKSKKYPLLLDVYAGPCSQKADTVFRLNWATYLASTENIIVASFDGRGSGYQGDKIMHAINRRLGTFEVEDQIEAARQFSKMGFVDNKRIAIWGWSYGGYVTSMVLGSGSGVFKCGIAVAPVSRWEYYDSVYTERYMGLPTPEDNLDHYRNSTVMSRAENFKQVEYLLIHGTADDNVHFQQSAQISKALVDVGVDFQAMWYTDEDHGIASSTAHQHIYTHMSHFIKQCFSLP", "format": "cell-based", "description": "The data are represented as the means ± standard deviation (SD) of three independent experiments, performed in triplicate. Statistical analysis was performed by one-way analysis of variance (ANOVA), followed by Tukey’s post hoc test. ns: not significant; (**), p < 0.01, (****) p < 0.0001; C: control cells.\nA total of 3 × 10^4 Caco-2 cells/well were seeded in black 96-well plates with clear bottoms."}, "Caco-2 cells [4]": {"test_system": "Caco-2 cells", "test": "MTT assay", "format": "cell-based, human", "details": "10^–8 to 10^–5 M, 48 h", "description": "(§1) The cytotoxicity of the active compound 12 was determined. Cell viability was assessed by the quantitative colorimetric method of the MTT reduction on Caco-2 and HepG2 cells.\n(§2) A total of 3 × 10^4 Caco-2 and HepG2 cells/well were seeded in 96-well plates and treated with 11 and 12 from 10^–8 to 10^–5 M or vehicle (H2O) in complete growth media for 48 h at 37 °C under a 5% CO2 atmosphere. Subsequently, the treatment solvent was aspirated and 100 μL/well of 3-(4,5-dimethylthiazol-2-yl)-2,5-diphenyltetrazolium bromide (MTT) filtered solution was added. After 2 h of incubation at 37 °C under a 5% CO2 atmosphere, 0.5 mg/mL solution was aspirated and 100 μL/well of the lysis buffer (8 mM HCl + 0.5% NP-40 in DMSO) was added. After 10 min of slow shaking, the absorbance at 575 nm was read on a Synergy H1 fluorescence plate reader (Biotek, Bad Friedrichshall, Germany)."}, "HepG2 cells": {"test_system": "HepG2 cells", "test": "MTT assay", "format": "cell-based, human", "details": "10^–8 to 10^–5 M, 48 h", "description": "as §1, §2"}, "[5]": {"test": "Hepatic microsome stability", "format": "in vitro ADME", "details": "after 120 min of incubation", "description": "To predict the metabolic fate as well as the susceptibility of compound 12 to phase I metabolism following the in vivo administration, it was incubated with human (Sekisui XenoTech, LLC), CD-1 mouse (BioIVT), and Sprague-Dawley (SD) rat liver microsomes (Corning), as described in the Experimental Section."}, "[6]": {"target": "T3, purified recombinant human DPP IV (Homo sapiens, UniProt P27487)", "T3 construct": "purchased Cayman Chemicals (Michigan)", "T3 sequence (P27487 whole entry)": "as above", "test": "In vitro DPP IV activity assay (fluorogenic Gly-Pro-AMC substrate)", "format": "biochemical", "details": "mean from three different assays", "description": "The DPP IV inhibition activities of the entire sets of compounds were carried out on purified recombinant human DPP IV using conditions previously optimized.[35]\nFour independent in vitro experiments were carried out, and each of those was performed in triplicate in a white half-volume 96-well solid plate. […] Afterward, the samples were mixed and 50 μL was transferred to each plate well. Each reaction was started by adding 50 μL of the substrate solution (200 μM H-Gly-Pro-7-amido-4-methylcoumarin (AMC)) to each well and incubated at 37 °C for 30 min. […] The DPP IV enzyme and the substrate solution were provided by Cayman Chemicals (Michigan)."}}, "note": "“And” between values parts separate entries of the source, which are not always exact repeats. Equal values may be shown once."}
{"smiles": "NC(CCOc1ccc(S(N)(=O)=O)cc1)C1COc2ccccc2O1", "note": "(centres unmarked) [Compound 12, 4-(3-Amino-3-(1,4-benzodioxan)propoxy)benzenesulfonamide]", "values": [{"measurement": "solubility", "setting": "[1]", "result": 224, "unit": "µM"}, {"measurement": "nH α1a-AR (slope factor)", "setting": "human cloned α1a-AR", "result": "0.97 ± 0.27"}, {"measurement": "pKi α1a-AR", "setting": "human cloned α1a-AR; mean ± S.E.M.", "result": 6.61}, {"measurement": "intracellular fluorescence RFU 313/595 nm (uptake)", "setting": "Caco-2 cells [2]; 15 min", "result": "2874 ± 383.1", "unit": "RFU"}, {"measurement": "intracellular fluorescence RFU 313/595 nm (uptake)", "setting": "Caco-2 cells [2]; 30 min", "result": "4562 ± 993.2", "unit": "RFU"}, {"measurement": "intracellular fluorescence RFU 313/595 nm (uptake)", "setting": "Caco-2 cells [2]; 60 min", "result": "6250 ± 1163", "unit": "RFU"}, {"measurement": "Ki", "setting": "hCA IX", "result": 0.133, "unit": "µM"}, {"measurement": "inhibition of cellular DPP IV activity vs untreated cells", "setting": "[3]", "result": "60.65 ± 4.92% and 71.86 ± 4.27%"}, {"measurement": "cell viability (MTT reduction)", "setting": "Caco-2 cells [4]", "result": "maintain their metabolic activity"}, {"measurement": "cell viability (MTT reduction)", "setting": "HepG2 cells", "result": "maintain their metabolic activity"}, {"measurement": "compound remaining", "setting": "[5]; human liver microsomes", "result": 72.6, "unit": "%"}, {"measurement": "compound remaining", "setting": "[5]; mouse liver microsomes", "result": 27.5, "unit": "%"}, {"measurement": "compound remaining", "setting": "[5]; rat liver microsomes", "result": 16.7, "unit": "%"}, {"measurement": "IC50", "setting": "[6]", "result": "0.049 ± 0.0045", "unit": "µM"}]}
